Experimental data reported in publication PMC5127189 (Scientific Reports, 2016).

Experiments:
[1] = system: HTG21 (DNA, G4) GGGTTAGGGTTAGGGTTAGGG; assay: fluorescent intercalator displacement (FID); parameters: unit not given here; settings: thiazole orange displaced
[2] = system: ds26 (DNA, duplex) CAATCGGATCGAATTCGATCCGATTG; assay: fluorescent intercalator displacement (FID); parameters: unit not given here; settings: thiazole orange displaced
[3] = system: c-kit-1 (DNA, G4) CGGGCGGGCACGAGGGAGGGT; assay: fluorescent intercalator displacement (FID); settings: K+ 100 mM (TBS); 10 mM Tris, pH 7.35 (TBS as defined in Table 4); thiazole orange displaced
[4] = system: Pu22 (DNA, G4) TGAGGGTGGGTAGGGTGGGTAA; assay: fluorescent intercalator displacement (FID); settings: K+ 100 mM (TBS); 10 mM Tris, pH 7.35 (TBS as defined in Table 4); thiazole orange displaced
[5] = system: Pu27 (DNA, G4) TGGGGAGGGTGGGGAGGGTGGGGAAGG; assay: fluorescent intercalator displacement (FID); settings: K+ 100 mM (TBS); 10 mM Tris, pH 7.35 (TBS as defined in Table 4); thiazole orange displaced
[6] = system: c-kit-2 (DNA, G4) CGGGCGGGCGCTAGGGAGGGT; assay: fluorescent intercalator displacement (FID); parameters: unit not given here; settings: thiazole orange displaced
[7] = system: Pu22 (DNA, G4) TGAGGGTGGGTAGGGTGGGTAA; assay: fluorescent intercalator displacement (FID); parameters: unit not given here; settings: thiazole orange displaced
[8] = system: c-kit-1 (DNA, G4) CGGGCGGGCACGAGGGAGGGT; assay: fluorescent intercalator displacement (FID); parameters: unit not given here; settings: thiazole orange displaced
[9] = system: Pu27 (DNA, G4) TGGGGAGGGTGGGGAGGGTGGGGAAGG; assay: fluorescent intercalator displacement (FID); parameters: unit not given here; settings: thiazole orange displaced
[10] = system: ds26 (DNA, duplex) CAATCGGATCGAATTCGATCCGATTG; assay: fluorescent intercalator displacement (FID); settings: K+ 100 mM (TBS); 10 mM Tris, pH 7.35 (TBS as defined in Table 4); thiazole orange displaced
[11] = system: HTG21 (DNA, G4) GGGTTAGGGTTAGGGTTAGGG; assay: fluorescent intercalator displacement (FID); settings: K+ 100 mM (TBS); 10 mM Tris, pH 7.35 (TBS as defined in Table 4); thiazole orange displaced
SK-OV-3 cells = assay: MTT cytotoxicity assay; format: cell-based, human; settings: SK-OV-3, 48 h; for Inhibitory rates (%): footnote a: 20 μM, footnotes b, c (salts, cisplatin) cut off
Procedure: (§1) The cytotoxic activity of the L^a–L^d and complexes 1–14 were tested against a panel of cell lines such as Hep-G2, NCI-H460, SK-OV-3, HCT-8, BEL-7402 cells, and one normal cell line, HL-7702, and cell viability was determined using the MTT assay. Cisplatin was used as the positive control.

HCT-8 cells = assay: MTT cytotoxicity assay; format: cell-based, human; settings: HCT-8, 48 h; for Inhibitory rates (%): footnote a: 20 μM, footnotes b, c (salts, cisplatin) cut off
Procedure: as §1

BEL-7402 cells = assay: MTT cytotoxicity assay; format: cell-based, human; settings: BEL-7402, 48 h; for Inhibitory rates (%): footnote a: 20 μM, footnotes b, c (salts, cisplatin) cut off
Procedure: as §1

NCI-H460 cells = assay: MTT cytotoxicity assay; format: cell-based, human; settings: NCI-H460, 48 h; for Inhibitory rates (%): footnote a: 20 μM, footnotes b, c (salts, cisplatin) cut off
Procedure: as §1

Hep-G2 cells [12] = settings: Hep-G2, 48 h; for Inhibitory rates (%): footnote a: 20 μM, footnotes b, c (salts, cisplatin) cut off
Procedure: as §1

[13] = system: human hepatoma (BEL-7402) xenograft; assay: In vivo antitumor activity, BEL-7402 xenograft model; parameters: species or system nude mice; settings: cisplatin, 2 mg/kg/2days ip; for Tumor Volume (end): day 18, 2 mg/kg
Procedure: Animal used, acute toxicity studies and antitumor activity toward BEL-7402 in vivo of complex 3 (16 and 8 mg/kg, two time a day,17 days (ip)), complex 6 (3.2 and 1.6 mg/kg/ day, 17 days) and cisplatin (2 mg/kg/2days), were similar to that reported by Chen[43][80]. BEL-7402 xenograft mouse models were purchased from Beijing HFK Bioscience Co., Ltd (Beijing, China, approval No. SCXK 2014-004). The animal procedures were approved by the Institute of Radiation Medicine Chinese Academy of Medical Sciences (Tian Jin, China, approval No. SYXK 2014-0002). And all of the experimental procedures were carried out in accordance with the NIH Guidelines for the Care and Use of Laboratory Animals. Animal experiments were approved by the Animal Care and Use Committee of Institute of Radiation Medicine Chinese Academy of Medical Sciences.

[14] = Body weight in the BEL-7402 xenograft study
Procedure: To investigate the efficacy of 3 to inhibit tumor growth in vivo, a mouse model of human hepatoma (BEL-7402) xenograft was used. The tumor-bearing nude mice received treatment when the tumor size was between 100 and 160 mm^3. The mice were treated with 3 at 16 and 8 mg/kg two times every day, and treatment of cisplatin with 2 mg/kg/2days as the positive control.
(1 picture or pasted object on this page, not shown here)

Hep-G2 cells [15] = assay: Distribution of metal in nuclear and mitochondrial fractions (ICP-MS); format: cell-based, human; settings: Hep-G2, 24 h
Procedure: The distributions of metal (cisplatin, complexes 1–6, 7, 8, 10 and 11) in the nuclear fraction and mitochondrial fractions of Hep-G2 cells were studied after exposure of Hep-G2 cells to 1–6, 7, 8, 10, 11 and cisplatin for 24 h according to our previous reports. […] Taken together, their difference of metal (Pt, Ni or Pd) distribution for complexes 1–6, 7, 8, 10, 11 and cisplatin could be attributed to their differences in cytotoxicity and the apoptotic pathways in Hep-G2 cells.

Hep-G2 cells [16] = assay: Cellular uptake of metal by ICP-MS; format: cell-based, human; settings: Hep-G2, 24 h; 3 5 μM, 6 14 μM, 7 16 μM, 8 10 μM, 10 12 μM, 11 6 μM, cisplatin 10 μM
Procedure: In order to understand the uptake and distribution of cisplatin, complexes 1–6, 7, 8, 10 and 11 in Hep-G2 cells, an ICP-MS assay was performed to quantify the amount of metal (Pt, Ni or Pd) taken up by the cells.

HL-7702 cells = assay: MTT cytotoxicity assay, normal cell line; format: cell-based, human; settings: HL-7702, 48 h; for Inhibitory rates (%): footnote a: 20 μM, footnotes b, c (salts, cisplatin) cut off
Procedure: as §1

| Compound | HTG21DC50 [1] | ds26DC50 [2] | c-kit-2DC50 [6] | Pu22DC50 [7] | c-kit-1DC50 [8] | Pu27DC50 [9] | Inhibitory rates (%) (SK-OV-3 cells) | Inhibitory rates (%) (HCT-8 cells) | Inhibitory rates (%) (BEL-7402 cells) | Inhibitory rates (%) (NCI-H460 cells) | Inhibitory rates (%) (Hep-G2 cells [12]) | Inhibitory rates (%) (HL-7702 cells) | other results |
| --- | --- | --- | --- | --- | --- | --- | --- | --- | --- | --- | --- | --- | --- |
| COC1c2c([c-]ccc2Cl)-c2nccc3cccc1c23.CS(C)=O.[Cl-].[Pt+2] (stereo not shown) | 55.16 | 91.48 | 79.69 |  |  |  |  |  |  |  |  |  | c-kit-1DC50 [3]: 79.95; Pu22DC50 [4]: 74.91; Pu27DC50 [5]: 33.15 |
| CS(C)=O.O=C1c2c([c-]ccc2Cl)-c2nccc3cccc1c23.[Cl-].[Pt+2] | 70.83 | 96.11 | 87.29 | 99.81 | 90.02 | 60.02 |  |  |  |  |  |  |  |
| Nc1ccc2ccnc3c2c1C(=O)c1ccccc1-3.[Cl-].[Cl-].[Ni+2] | 3.35 | 37.01 | 3.61 | 7.63 | 9.11 | 1.31 |  |  |  |  |  |  |  |
| Nc1ccc2ccnc3c2c1C(=O)c1ccccc1-3.[Cl-].[Cl-].[Pd+2] | 3.91 | 21.76 | 5.01 | 9.09 | 18.75 | 3.88 |  |  |  |  |  |  |  |
| Nc1cccc2c1C(=O)c1cccc3ccnc-2c13.[Cl-].[Cl-].[Ni+2] |  |  | 45.30 | 90.18 | 73.65 | 14.22 |  |  |  |  |  |  | ds26DC50 [10]: 70.46; HTG21DC50 [11]: 26.45 |
| Nc1cccc2c1C(=O)c1cccc3ccnc-2c13.[Cl-].[Cl-].[Pd+2] | 49.08 | 90.63 | > 100 | 89.64 | 78.46 | 42.51 |  |  |  |  |  |  |  |
| N.N.[Cl][Pt][Cl] [Cisplatin, cisplatin, reference compound] |  |  |  |  |  |  | 58.06 ± 1.03 | 56.07 ± 1.67% | 65.82 ± 1.11 | 59.13 ± 1.35% | 68.71 ± 0.56 | 63.09 ± 1.35% | IC50 (SK-OV-3 cells): 14.1 ± 1.07 µM; IC50 (HCT-8 cells): 16.3 ± 1.54 µM; IC50 (BEL-7402 cells): 12.7 ± 0.94 µM; IC50 (NCI-H460 cells): 18.1 ± 1.26 µM; IC50 (Hep-G2 cells [12]): 9.65 ± 0.87 µM; Tumor Volume (start) [13]: 104.79 ± 32.12 mm^3; average tumor weight (mean ± SD g) [13]: 0.52 ± 0.29 g; Tumor Volume (end) [13]: 566.82 ± 331.08 mm^3; Tumor Volume (end) ([13]; listed as cisplatin): 566 mm^3; inhibition of tumor growth (%) / Inhibition Ratio ([13]; tumor weight): 75.9%; body weight loss during treatment (in words) ([14]; BEL-7402 xenograft mice): severe body weight loss; Body Weight (end) ([14]; cisplatin, 2 mg/kg/2days ip): 19.6 ± 0.9 g; Body Weight (start) ([14]; cisplatin, 2 mg/kg/2days ip): 22.5 ± 1.1 g; RBW (%) (end) ([14]; cisplatin, 2 mg/kg/2days ip): 87.11 ± 4.8%; distribution of metal in nuclear and mitochondrial fractions (Hep-G2 cells [15]): mainly accumulated in the mitochondrial fraction; cellular accumulation of metal (Pt) (Hep-G2 cells [16]): 4.89 ± 0.43 nmol platinum/10^6 cells; IC50 (HL-7702 cells): 12.3 ± 1.19 µM |
| O.O.O.O.O.O.[Cl][Ni][Cl] [NiCl2·6H2O, reference compound] |  |  |  |  |  |  | 20.88 ± 0.61 | 12.75 ± 1.09% | 11.28 ± 1.08 | 10.44 ± 1.82% | 15.06 ± 1.09 | 17.03 ± 1.16% |  |
| [Cl][Pd][Cl] [PdCl2, reference compound] |  |  |  |  |  |  | 19.02 ± 1.04 | 15.05 ± 1.84% | 18.59 ± 1.77 | 9.91 ± 1.49% | 20.14 ± 1.18 | 18.24 ± 1.33% |  |
| O=C1c2c(Cl)cc[c]3c2-c2c4c1cccc4cc[n+]2[Pt-2]31[NH2+]CCC[NH2+]1.[Cl-] (stereo not shown) [compound 9, [Pt(L^c)(pn)]Cl] |  |  |  |  |  |  | 36.74 ± 1.21 | 40.89 ± 1.79% | 40.64 ± 0.85 | 47.28 ± 1.07% | 58.11 ± 2.05 | 39.56 ± 1.01% | IC50 (SK-OV-3 cells): 30.4 ± 1.19 µM; IC50 (HCT-8 cells): 25.2 ± 1.82 µM; IC50 (BEL-7402 cells): 45 ± 0.86 µM; IC50 (NCI-H460 cells): 25.1 ± 1.09 µM; IC50 (Hep-G2 cells [12]): 15.9 ± 2.11 µM; IC50 (HL-7702 cells): 80 ± 1.02 µM |
| NCCN [en, 1,2-ethylenediamine, reference compound] |  |  |  |  |  |  | 18.42 ± 0.98 | 16.45 ± 1.92% |  | 20.58 ± 1.66% | 13.64 ± 2.03 | 15.03 ± 0.65% |  |
| cis-Pt(DMSO)2Cl2 [reference compound] |  |  |  |  |  |  | 15.11 ± 1.17 | no activity | 10.74 ± 0.95 | no activity | 17.83 ± 0.57 | no activity |  |
